Measured values reported in patent US7820201B2, “System for manufacturing controlled release dosage forms, such as zero-order release profile dosage form manufactured by three-dimensional printing” (Massachusetts Institute of Technology, priority 2001, dated 2010).
Like-named read-outs stand apart in the source and are kept apart here.

Conditions: for ko, best fit rate constant for equation 9: Co 280 mgAPI/cc, 3-D release, simulated intestinal fluid pH 7.4, 37° C.
From the text: The concentration C0 refers to the amount of API per unit volume in the dosage form after compression.
Each of the API release curves in FIG. 16 was fit to Equation 9 by performing a least-squares fit between the empirical data and model. This was done to determine the relevance of the model, and to determine rate constants for the powder/API systems for later use. […] For this purpose, the rate constants in the two different directions were assumed to be equal.
The erosion rate constants are given in units of mg/hr cm^2 where mg is mg of API released into the dissolution fluid. R^2 is a statistical measure of correlation, with a value of 1 indicating perfect correlation.

O=C(O)Cc1ccccc1Nc1c(Cl)cccc1Cl [diclofenac sodium]
linear erosion rate constant delta r/delta t (70% Lactose: 30% HPMC conventional tablets): 0.341 mm/hr
ko, best fit rate constant for equation 9 (Lactose:HPMC 60:40, 100 mg API): 6.092 mg/hr · cm^2
ko, best fit rate constant for equation 9 (Lactose:HPMC 70:30, 100 mg API): 9.540 mg/hr · cm^2
ko, best fit rate constant for equation 9 (Lactose:HPMC 80:20, 100 mg API): 22.238 mg/hr · cm^2
